US20120258980A1, “Antibacterial Agent for Drug-Resistant Bacteria, Method for Screening for Same, and Use of Same” (priority 2009, published 2012)
≈ marks a conversion by molar mass, not a printed value.

Tests used:
Enterococcus faecalis = assay: MIC measurement, Test Example 6 (enterococcus); format: cell-based; settings: against enterococci
How it was run: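 E. faecalis strains, including vancomycin-resistant NCTC12201 and NCTC12203, pre-grown overnight in TSB at 37° C, set to A578 0.3 in CAMHB, then diluted 500-fold.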

[1] = system: VISA clinical isolates of MRSA (VI-MRSA) and of MSSA (VI-MSSA); assay: microbe, parasite or virus in culture; format: cell-based, Staphylococcus aureus
How it was run: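 Strains were grown overnight at 37° C in TSB, adjusted in CAMHB to 0.3 absorbance at 578 nm and diluted 500-fold before equal-volume addition to compound dilutions.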

Cc1cc(=O)n2c3c(c4c(cc13)c(CO)cc(=O)n4C)OC2 [NM, nybomycin]
antibacterial activity, comparison between NM and DNM (Enterococcus faecalis): higher antibacterial activity against enterococci than DNM | MIC ([1]; Staphylococcus aureus, 99/3700-W, VI-MRSA, The United Kingdom): 0.25 µg/mL (≈ 0.838 µM) | MIC ([1]; Staphylococcus aureus, 99/3759-V, VI-MRSA, The United Kingdom): 0.5 µg/mL (≈ 1.68 µM) | MIC ([1]; Staphylococcus aureus, 28160, VI-MRSA, South African Republic): 0.5 µg/mL (≈ 1.68 µM) | MIC ([1]; Staphylococcus aureus, 98141, VI-MRSA, France): 0.5 µg/mL (≈ 1.68 µM) | MIC ([1]; Staphylococcus aureus, A7 (JCSC4842), VI-MRSA, Taiwan): 0.125 µg/mL (≈ 0.419 µM) | MIC ([1]; Staphylococcus aureus, AMC11094, VI-MRSA, Korea): 1 µg/mL (≈ 3.35 µM) | MIC ([1]; Staphylococcus aureus, B7 (JCSC4852), VI-MRSA, Taiwan): ≤ 0.063 µg/mL | MIC ([1]; Staphylococcus aureus, BR1, VI-MRSA, Brazil): 0.5 µg/mL (≈ 1.68 µM) | MIC ([1]; Staphylococcus aureus, BR2, VI-MRSA, Brazil): 0.25 µg/mL (≈ 0.838 µM) | MIC ([1]; Staphylococcus aureus, BR3, VI-MRSA, Brazil): 0.25 µg/mL (≈ 0.838 µM) | MIC ([1]; Staphylococcus aureus, BR4, VI-MRSA, Brazil): 0.25 µg/mL (≈ 0.838 µM) | MIC ([1]; Staphylococcus aureus, BR5, VI-MRSA, Brazil): 0.25 µg/mL (≈ 0.838 µM) | MIC ([1]; Staphylococcus aureus, HIP06297, VI-MRSA, America): 0.5 µg/mL (≈ 1.68 µM) | MIC ([1]; Staphylococcus aureus, HIP06854, VI-MRSA, America): 1 µg/mL (≈ 3.35 µM) | MIC ([1]; Staphylococcus aureus, HIP07920, VI-MRSA, America): 0.25 µg/mL (≈ 0.838 µM) | MIC ([1]; Staphylococcus aureus, HIP07930, VI-MRSA, America): 1 µg/mL (≈ 3.35 µM) | MIC ([1]; Staphylococcus aureus, HIP08926, VI-MRSA, America): 0.25 µg/mL (≈ 0.838 µM) | MIC ([1]; Staphylococcus aureus, HIP09143, VI-MRSA, America): 0.25 µg/mL (≈ 0.838 µM) | MIC ([1]; Staphylococcus aureus, HIP09313, VI-MRSA, America): 0.5 µg/mL (≈ 1.68 µM) | MIC ([1]; Staphylococcus aureus, HIP09433, VI-MRSA, America): 1 µg/mL (≈ 3.35 µM) | MIC ([1]; Staphylococcus aureus, HIP09662, VI-MRSA, America): 1 µg/mL (≈ 3.35 µM) | MIC ([1]; Staphylococcus aureus, HIP09735, VI-MRSA, America): 0.25 µg/mL (≈ 0.838 µM) | MIC ([1]; Staphylococcus aureus, HIP09737, VI-MSSA, America): 1 µg/mL (≈ 3.35 µM) | MIC ([1]; Staphylococcus aureus, HIP09740, VI-MRSA, America): 0.25 µg/mL (≈ 0.838 µM) | MIC ([1]; Staphylococcus aureus, HIP10267, VI-MRSA, America): 2 µg/mL (≈ 6.7 µM) | MIC ([1]; Staphylococcus aureus, HIP10540, VI-MRSA, America): 0.25 µg/mL (≈ 0.838 µM) | MIC ([1]; Staphylococcus aureus, HIP12864, VI-MRSA, America): 0.5 µg/mL (≈ 1.68 µM) | MIC ([1]; Staphylococcus aureus, HIP13036, VI-MRSA, America): 0.5 µg/mL (≈ 1.68 µM) | MIC ([1]; Staphylococcus aureus, HIP13057, VI-MRSA, America): 0.25 µg/mL (≈ 0.838 µM) | MIC ([1]; Staphylococcus aureus, IL (HIP7737), VI-MRSA, America): 1 µg/mL (≈ 3.35 µM) | MIC ([1]; Staphylococcus aureus, JCSC7193, VI-MRSA, Thailand): 0.33 µg/mL (≈ 1.11 µM) | MIC ([1]; Staphylococcus aureus, JCSC7195, VI-MRSA, Thailand): 0.33 µg/mL (≈ 1.11 µM) | MIC ([1]; Staphylococcus aureus, JCSC7203, VI-MRSA, Thailand): 0.16 µg/mL (≈ 0.536 µM) | MIC ([1]; Staphylococcus aureus, LIM2, VI-MRSA, France): 0.5 µg/mL (≈ 1.68 µM) | MIC ([1]; Staphylococcus aureus, LY-1999-01, VI-MSSA, Oman): 0.125 µg/mL (≈ 0.419 µM) | MIC ([1]; Staphylococcus aureus, LY-1999-03, VI-MRSA, Oman): ≤ 0.063 µg/mL | MIC ([1]; Staphylococcus aureus, MI (HIP5827), VI-MRSA, America): 0.5 µg/mL (≈ 1.68 µM) | MIC ([1]; Staphylococcus aureus, MRSA / MSSA / NRS 76 / VISA, NRS76, VI-MSSA, America): 0.25 µg/mL (≈ 0.838 µM) | MIC ([1]; Staphylococcus aureus, MRSA / MSSA / NRS 79 / VISA, NRS79, VI-MRSA, America): 1 µg/mL (≈ 3.35 µM) | MIC ([1]; Staphylococcus aureus, MRSA / MSSA / NRS 118 / VISA, NRS118, VI-MRSA, America): 0.25 µg/mL (≈ 0.838 µM) | MIC ([1]; Staphylococcus aureus, MRSA / MSSA / NRS 126 / VISA, NRS126, VI-MRSA, America): 0.5 µg/mL (≈ 1.68 µM) | MIC ([1]; Staphylococcus aureus, Mu3, VI-MRSA, Japan): 0.5 µg/mL (≈ 1.68 µM) | MIC ([1]; Staphylococcus aureus, Mu50, VI-MRSA, Japan): 0.25 µg/mL (≈ 0.838 µM) | MIC ([1]; Staphylococcus aureus, NJ (HIP5836), VI-MRSA, America): 0.5 µg/mL (≈ 1.68 µM) | MIC ([1]; Staphylococcus aureus, P1V44, VI-MSSA, Belgium): 1 µg/mL (≈ 3.35 µM) | MIC ([1]; Staphylococcus aureus, PC, VI-MRSA, America): 1 µg/mL (≈ 3.35 µM) | MIC ([1]; Staphylococcus aureus, SA MER-S6, VI-MSSA, France): 64 µg/mL (≈ 215 µM) | MIC ([1]; Staphylococcus aureus, SA MER-S12, VI-MSSA, France): 64 µg/mL (≈ 215 µM) | MIC ([1]; Staphylococcus aureus, SA MER-S20, VI-MSSA, France): > 64 µg/mL
